Test results: US9637469B2, “Pyridine derivative” (Teijin Pharma Limited, priority 2012, dated 2017)

Biological target: T1, human URAT1 (Homo sapiens, UniProt Q96S37)
T1 construct: Full-length cDNA of human URAT1 (hURAT1)
T1 sequence (Q96S37 1-553): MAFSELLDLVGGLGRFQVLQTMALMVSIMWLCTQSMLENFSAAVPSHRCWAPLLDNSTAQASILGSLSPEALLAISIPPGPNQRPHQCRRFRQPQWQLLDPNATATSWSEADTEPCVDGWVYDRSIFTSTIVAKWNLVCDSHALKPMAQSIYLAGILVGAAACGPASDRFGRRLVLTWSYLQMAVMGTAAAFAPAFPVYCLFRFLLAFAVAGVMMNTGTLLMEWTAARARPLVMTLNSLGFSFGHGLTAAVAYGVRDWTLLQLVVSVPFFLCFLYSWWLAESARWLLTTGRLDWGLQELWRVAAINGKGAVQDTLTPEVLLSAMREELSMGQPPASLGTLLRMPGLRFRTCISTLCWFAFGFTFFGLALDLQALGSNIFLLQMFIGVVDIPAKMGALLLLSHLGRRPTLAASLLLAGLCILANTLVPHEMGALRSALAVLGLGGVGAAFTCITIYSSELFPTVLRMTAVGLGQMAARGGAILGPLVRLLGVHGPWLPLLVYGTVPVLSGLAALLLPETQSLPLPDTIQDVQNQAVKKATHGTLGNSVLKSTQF
Experiment: Test for inhibition of uric acid transport using human URAT1-expressing cells;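 further: three stars up to 0.2 µM two stars 0.2-2 µM one star 2-20 µM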
Assay type: cell-based
Conditions: HEK 293 cells expressing human URAT1, 14C-labeled uric acid 25 μM, uptake 37° C. for 5 min; for IC50: read-out: Inhibitory Activity (IC50 of uric acid transport inhibition)
Method: (1) Preparation of the Test Compound
The test compound was dissolved in DMSO (produced by Sigma) to a concentration of 20 mM and was subsequently used by diluting to desired concentrations.
(2) Test for Inhibition of Uric Acid Transport Using Human URAT1-Expressing Cells;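 further: three stars up to 0.2 µM two stars 0.2-2 µM one star 2-20 µM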
Full-length cDNA of human URAT1 (hURAT1) (produced by OriGene Technologies, Inc., NCBI Reference Sequence: NM 144585) was subcloned into an expression vector, pCMV6-Kan/Neo (produced by OriGene Technologies, Inc.), and hURAT1 gene was transfected into human embryonic kidney-derived cells (HEK 293 cells) by liposome method using Lipofectamine 2000 (produced by Invitrogen Corporation), whereupon HEK 293 cells expressing human URAT1 gene were screened by its Geneticin resistance. By a method similar to the following method, functional expression of human URAT1 gene was confirmed by using transport of ^14C-labeled uric acid into the cells as an index.
The HEK 293 cells expressing human URAT1 were seeded in a 24-well cell culture dish to a density of 3×10^5 cells/mL/well and were cultured in Dulbecco's modified Eagle's medium (D-MEM medium) containing 10% fetal bovine serum at 37° C. for 2 days. Thereafter, the following test for inhibition of uric acid transport was performed.
After the medium was removed by aspiration from each well, the medium was replaced with a solution obtained by substituting NaCl in Hank's Balanced Salt Solution (HBSS) with Na gluconate (hereinafter, HBSS/Na-gluconate) and the cells were preincubated at 37° C. for about 10 minutes. HBSS/Na-gluconate was removed by aspiration and a ^14C-uric acid solution that was warmed at 37° C. in advance containing various concentrations of the Example compound described in (1) and a radioactive ligand (^14C-labeled uric acid; final concentration 25 μM) was added and an uptake reaction was carried out by incubating at 37° C. for 5 min. After the incubation, ^14C-labeled uric acid solution was removed by aspiration and the cells were washed three times with ice-cold HBSS. The HEK 293 cells expressing human URAT1 were lysed in 0.2 mol/L aqueous NaOH (hereafter, the cell sample) and the cell samples were collected. The cell sample and a liquid scintillation liquid, ULTIMA GOLD (produced by PerkinElmer, Inc.) were mixed and the radioactivity was measured by a liquid scintillation counter (Beckman Coulter, Inc.).
The uric acid transport rate of the Example compound at each concentration (% of control uptake) was calculated relative to the radioactivity (radioactivity in human URAT1 expressing HEK 293 cells without addition of the Example compound (DMSO addition)) showing URAT1-specific uric acid transport as 100%, and the concentration (IC50) of the Example compound at which the uric acid transport rate is inhibited by 50% was determined. In addition, the symbols (*, **, and ***) in the table represent the following inhibitory activity values: • IC50≦_ 0.2 μM: *** • 0.2 μM<IC50≦2 μM: ** • 2 μM<IC50≦20 μM: *

Compound | Inhibitory Activity (IC50 of uric acid transport inhibition) | IC50
Cc1nc(-c2cccnc2)n(Cc2cc(F)ccc2Cl)c1C(=O)O [Compound A41, 1-(2-chloro-5-fluorobenzyl)-4-methyl-2-(pyridin-3-yl)-1H-imidazole-5-carboxylic acid] | * * | –
Cc1nc(-c2cccnc2)n(Cc2cc(Cl)ccc2F)c1C(=O)O [Compound A42, 1-(5-chloro-2-fluorobenzyl)-4-methyl-2-(pyridin-3-yl)-1H-imidazole-5-carboxylic acid] | * * | –
Cc1nc(-c2cccnc2)n(Cc2cc(C(F)(F)F)ccc2Cl)c1C(=O)O [Compound A43, 1-(2-chloro-5-(trifluoromethyl)benzyl)-4-methyl-2-(pyridin-3-yl)-1H-imidazole-5-carboxylic acid] | * * * | –
Cc1nc(-c2cccnc2)n(Cc2cc(Cl)ccc2C(F)(F)F)c1C(=O)O [Compound A44, 1-(5-chloro-2-(trifluoromethyl)benzyl)-4-methyl-2-(pyridin-3-yl)-1H-imidazole-5-carboxylic acid] | * * | –
O=C(O)c1cnc(-c2cccnc2)n1Cc1cc(Cl)ccc1Cl [Compound A45, 1-(2,5-dichlorobenzyl)-2-(pyridin-3-yl)-1H-imidazole-5-carboxylic acid] | * * * | –
Cc1nc(-c2cccnc2)n(Cc2cc(C(F)(F)F)ccc2C(F)(F)F)c1C(=O)O [Compound A46, 1-(2,5-bis(trifluoromethyl)benzyl)-4-methyl-2-(pyridin-3-yl)-1H-imidazole-5-carboxylic acid] | * * | –
COc1ccc(-c2nc(C)c(C(=O)O)n2Cc2cccc3ccccc23)c(OC)n1 [Compound A47] | – | 2 to 20 µM
Cc1nc(-c2cccnc2)n(Cc2ccccc2F)c1C(=O)O [Compound A48] | – | 2 to 20 µM
Cc1nc(-c2cccnc2)n(Cc2cccc(F)c2)c1C(=O)O [Compound A49] | – | 2 to 20 µM
Cc1nc(-c2cccnc2)n(Cc2ccc(F)cc2)c1C(=O)O [Compound A50] | – | 2 to 20 µM
Cc1nc(-c2cccnc2)n(Cc2ccccc2Cl)c1C(=O)O [Compound A51] | – | 2 to 20 µM
Cc1nc(-c2cccnc2)n(Cc2cccc(Cl)c2)c1C(=O)O [Compound A52] | – | 2 to 20 µM
Cc1nc(-c2cccnc2)n(Cc2ccc(Cl)cc2)c1C(=O)O [Compound A53] | – | 2 to 20 µM
Cc1nc(-c2cccnc2)n(Cc2ccccc2Br)c1C(=O)O [Compound A54, 1-(2-bromobenzyl)-4-methyl-2-(pyridin-3-yl)-1H-imidazole-5-carboxylic acid] | * * | –
Cc1nc(-c2cccnc2)n(Cc2cccc(Br)c2)c1C(=O)O [Compound A55, 1-(3-bromobenzyl)-4-methyl-2-(pyridin-3-yl)-1H-imidazole-5-carboxylic acid] | * * | –
Cc1nc(-c2cccnc2)n(Cc2ccc(Br)cc2)c1C(=O)O [Compound A56] | – | 2 to 20 µM
Cc1ccccc1Cn1c(-c2cccnc2)nc(C)c1C(=O)O [Compound A57] | – | 2 to 20 µM
Cc1cccc(Cn2c(-c3cccnc3)nc(C)c2C(=O)O)c1 [Compound A58] | – | 2 to 20 µM
CCc1ccccc1Cn1c(-c2cccnc2)nc(C)c1C(=O)O [Compound A59] | – | 2 to 20 µM
Cc1nc(-c2cccnc2)n(Cc2ccccc2C(F)(F)F)c1C(=O)O [Compound A60] | – | 2 to 20 µM

Compound | Inhibitory Activity (IC50 of uric acid transport inhibition) | IC50
Cc1nc(-c2cccnc2)n(Cc2cccc(C(F)(F)F)c2)c1C(=O)O [Compound A61] | – | 2 to 20 µM
Cc1nc(-c2cccnc2)n(Cc2ccccc2OC(F)(F)F)c1C(=O)O [Compound A62] | – | 2 to 20 µM
Cc1nc(-c2cccnc2)n(Cc2cccc(OC(F)(F)F)c2)c1C(=O)O [Compound A63] | – | 2 to 20 µM
Cc1nc(-c2cccnc2)n(Cc2ccccc2C#N)c1C(=O)O [Compound A64] | – | 2 to 20 µM
Cc1nc(-c2cccnc2)n(Cc2cccc(C#N)c2)c1C(=O)O [Compound A65] | – | 2 to 20 µM
Cc1nc(-c2cnc3ccccc3c2)n(Cc2cccc3ccccc23)c1C(=O)O [Compound A66] | – | 2 to 20 µM
Cc1nc(-c2cnc3ccccc3c2)n(Cc2cc(Cl)ccc2Cl)c1C(=O)O [Compound A67, 1-(2,5-dichlorobenzyl)-4-methyl-2-(quinolin-3-yl)-1H-imidazole-5-carboxylic acid] | * * | –
Cc1nc(-c2cccnc2)n(Cc2ccc(Cl)c(Cl)c2)c1C(=O)O [Compound A68, 1-(3,4-dichlorobenzyl)-4-methyl-2-(pyridin-3-yl)-1H-imidazole-5-carboxylic acid] | * * | –
Cc1nc(-c2cccnc2)n(Cc2cccc(Cl)c2Cl)c1C(=O)O [Compound A70, 1-(2,3-dichlorobenzyl)-4-methyl-2-(pyridin-3-yl)-1H-imidazole-5-carboxylic acid] | * * | –
Cc1nc(-c2cccnc2)n(Cc2cc(Cl)cc(Cl)c2)c1C(=O)O [Compound A71, 1-(3,5-dichlorobenzyl)-4-methyl-2-(pyridin-3-yl)-1H-imidazole-5-carboxylic acid] | * * * | –
Cc1nc(-c2cccnc2)n(Cc2c(F)cccc2Cl)c1C(=O)O [Compound A72] | – | 2 to 20 µM
Cc1nc(-c2cccnc2)n(Cc2ccc(F)cc2Cl)c1C(=O)O [Compound A73] | – | 2 to 20 µM
Cc1nc(-c2cccnc2)n(Cc2cccc(Cl)c2F)c1C(=O)O [Compound A74] | – | 2 to 20 µM
Cc1nc(-c2cccnc2)n(Cc2ccc(F)c(Cl)c2)c1C(=O)O [Compound A75] | – | 2 to 20 µM
Cc1nc(-c2cccnc2)n(Cc2cc(F)cc(Cl)c2)c1C(=O)O [Compound A76, 1-(3-chloro-5-fluorobenzyl)-4-methyl-2-(pyridin-3-yl)-1H-imidazole-5-carboxylic acid] | * * | –
Cc1nc(-c2cccnc2)n(Cc2ccc(Cl)cc2Cl)c1C(=O)O [Compound A77, 1-(2,4-dichlorobenzyl)-4-methyl-2-(pyridin-3-yl)-1H-imidazole-5-carboxylic acid] | * * | –
Cc1ccc(Cl)c(Cn2c(-c3cccnc3)nc(C)c2C(=O)O)c1 [Compound A78, 1-(2-chloro-5-methylbenzyl)-4-methyl-2-(pyridin-3-yl)-1H-imidazole-5-carboxylic acid] | * * * | –
Cc1nc(-c2cccnc2)n(Cc2cc(Cl)sc2Cl)c1C(=O)O [Compound A79, 1-((2,5-dichlorothiophen-3-yl)methyl)-4-methyl-2-(pyridin-3-yl)-1H-imidazole-5-carboxylic acid] | * * | –
Cc1nc(-c2cccnc2)n(Cc2sc(Cl)cc2Cl)c1C(=O)O [Compound A80, 1-((2,4-dichlorothiophen-5-yl)methyl)-4-methyl-2-(pyridin-3-yl)-1H-imidazole-5-carboxylic acid] | * * | –
O=C(O)c1c(C2CC2)nc(-c2cccnc2)n1Cc1cccc2ccsc12 [Compound A82, 1-(benzo[b]thiophen-7-ylmethyl)-4-cyclopropyl-2-(pyridin-3-yl)-1H-imidazole-5-carboxylic acid] | * * | –
